PMC3055912, “A Method for Structure–Activity Analysis of Quorum-Sensing Signaling Peptides from Naturally Transformable Streptococci” (Biological Procedures Online, 2009)
Peptide text beside a SMILES is read from it.

What was measured:
[1] = system: comDE promoter (PcomDE::lacZ) in comC mutant SMdC; experiment: comDE-lacZ reporter β-gal activity, strain SMdC-pYH2; format: cell-based, Streptococcus mutans; conditions: background control SMdC-pSL showed no significant difference
Source text: (§1) To assay QS activation in response to addition of a peptide, we constructed two types of lacZ transcriptional reporter strains that represented two levels of QS-activated gene expression. The first was a lacZ reporter gene fused to the comDE promoter, which allowed monitoring of the activity of the comDE promoter in response to a test peptide. The second strain was a lacZ reporter gene fused to the promoter of nlmAB, the gene encoding a nonlantibiotic bacteriocin and its expression directly controlled by the ComE [6, 22]. This strain allowed assay of comDE-controlled bacteriocin production.
For the first reporter strain, we simply transformed previously constructed vector pYH2 [10] into the comC mutant (SMdC) to generate SMdC-pYH2 (PcomDE::lacZ, comC^-, Spec^r, Kan^r). pYH2 was constructed in such a way that the comDE promoter was fused to a promoterless lacZ gene on the backbone of Streptococcus–Escherichia coli shuttle vector pSL. […] These strains were then assessed for lacZ reporter activity in response to addition of peptides.
A lacZ reporter assay was performed to monitor quorum-sensing activation using the same method as described previously. The newly constructed lacZ reporter strains were used to assay and quantify β-galactosidase activity in response to test peptides. […] Protein concentrations of the supernatants were determined by Bio-Rad protein assay (Bio-Rad). […]

[2] = system: comDE promoter (PcomDE::lacZ) in comC mutant SMdC; conditions: SMdC-pYH2; cited from earlier work
Protocol: We also used this mutant (SMdC) as a host to generate two types of lacZ transcriptional reporter fusion strains to assay the promoter activity of QS-controlled target genes, comDE and nlmAB, in response to addition of CSP. The lacZ reporter strain, SMdC-pYH2 (PcomDE::lacZ, comC^-, Spec^r, Kan^r), along with its background control strain SMdC-pSL (comC^-, Spec^r, Kan^r) were then assayed for β-galactosidase activity.

[3] = system: S. mutans comC mutant SMdC (indicator strain Streptococcus sanguinis SK108); experiment: QS-controlled bacteriocin production, agar plate overlay assay; format: cell-based; conditions: for level of bacteriocins induced compared with wild-type GS5: comC mutant SMdC with peptide, inhibitory zone against S. sanguinis SK108, Figure 5
Protocol: The S. mutans comC mutant SMdC as well as its parent GS5 and wild-type strain UA159 (positive controls) were used to assay for bacteriocin production using a modified agar plate method. Briefly, an aliquot of mid-log phase cells of the S. mutans wild-type strains and mutant SMdC grown under a condition with or without use of CSP or a test peptide were stabbed onto THYE agar plates. The plates were incubated anaerobically at 37°C for 6 h before carefully overlaid with 100 μL of cell suspension (about 10^6 CFU/mL^-1) of an indicator strain Streptococcus sanguinis SK108. The plates were further incubated anaerobically at 37°C for 24 h before inspection of bacteriocin production. The S. mutans strains showing an inhibitory zone around the stabs were scored as positive for bacteriocin production. The plates were then photographed for records.

[4] = aqueous buffer 50 mM K2HPO4/KH2PO4 pH 7.0; NMR needs 1.0 to 10 mM peptide
Protocol: For NMR studies, buffers, co-solvents, and additives were hydrogen-free or deuterated. Samples could be dissolved in as little as 10 μL, but typically, spectrometers were designed for sample volumes of at least 500 μL. Due to the inherently low sensitivity, concentrations of peptides ranged from 1.0 to 10 mM [13].
In our study, synthetic peptides CSP (UA159sp) and TPC3 for CD and NMR were dissolved in 95/5/0%, 70/0/30%, 30/0/70%, or 0/0/100% aqueous buffer/D2O/TFE-d2, or 95/5 aqueous buffer/D2O with 300 mM DPC-d38 (98 atom %D), where TFE refers to trifluoroethanol and DPC-d38 refers to perdeuterated dodecylphosphocholine [10, 13]. The aqueous buffer used for sample preparation contained 50 mM K2HPO4/KH2PO4 at pH 7.0. The concentration of peptides for solutions containing 100% TFE-d2 or DPC-d38 was 2 and 5 mM.

[5] = system: nlmAB promoter (PnlmAB::lacZ) in comC mutant SMdC; experiment: nlmAB-lacZ reporter β-gal activity, strain SMdC-PnlmAB; format: cell-based, Streptococcus mutans; conditions: for time for which the high level of β-gal activity is maintained / time of highest level of β-gal activity after addition of peptide: SMdC-PnlmAB, time-course experiment
Source text: as §1
For the second reporter strain, we generated a chromosomal nlmAB–lacZ fusion strain by transforming a PnlmAB::lacZ fusion construct pOMZ47 [6] into both comC mutant SMdC and wild-type GS5. The resulting reporter strains were confirmed by PCR and sequencing of the fusion sites as described previously. The confirmed reporter strains were respectively named SMdC-PnlmAB (PnlmAB::lacZ, comC^-, Kan^r, Spec^r) and SMGS5-PnlmAB (PnlmAB::lacZ, Kan^r). The strain SMGS5-PnlmAB was used a positive control.
A lacZ reporter assay was performed to monitor quorum-sensing activation using the same method as described previously. The newly constructed lacZ reporter strains were used to assay and quantify β-galactosidase activity in response to test peptides. Aliquots of samples were taken to prepare cell lysates at different time points T0, T15, T30, T60, and T120 after addition of a test peptide. Protein concentrations of the supernatants were determined by Bio-Rad protein assay (Bio-Rad). Specific β-gal activities (A420 min^-1 mL^-1 mg^-1 protein) were calculated from triplicate samples from two independent experiments. The data from the β-gal activity experiments were then normalized against negative or background controls and plotted as percentages of maximal activation versus log peptide concentrations. The half maximal activation concentration (AC50) was determined from the sigmoidal dose–response curve using Prism 4 (Graphpad, San Diego, CA, USA).

[6] = system: S. mutans comC mutant SMdC; experiment: CSP-dependent transformation (genetic competence) assay; format: cell-based, Streptococcus mutans; conditions: data not shown
Source text: To determine if synthetic peptides activated quorum sensing for induction of genetic competence, we used the comC deletion mutant that was unable to produce, but still responded to CSP, to assay peptide-dependent genetic transformation using the method as described previously. A streptococcal suicide vector pVA-gtfA, which harbored a 2.4-kb fragment of the S. mutans gtfA gene and an erythromycin resistance marker, was used as transforming DNA. The wild-type GS5 was used as a positive control, while both ComC (SMdC) and ComE mutants (SMdE) were used as negative controls. The wild-type strain was grown on Todd–Hewitt yeast extract (THYE) medium, whereas the mutants were maintained on THYE plus spectinomycin. When culture reached to early mid-log phase (OD600 ≈ 0.25), an aliquot of CSP was added into the culture at a final concentration of 50 nM (AC50 ≈ 0.25 nM). […] Transformation frequency was expressed as percentage of transformants against total viable recipient cells per milliliter cell suspension. […]
7. All the plates are incubated at 37°C for 2 days before assessment of transformation frequency, which is expressed as percentages of transformants (erythromycin-resistant colonies) against total recipient cells per […] cell suspension. […]

[7] = target: quorum sensing (ComCDE signaling) in S. mutans lacZ reporter strains (Streptococcus mutans serotype c, UniProt Q8DS94); conditions: truncated peptides; cited from earlier work
Source text: Based on the three-dimensional structures of S. mutans wild-type signaling peptide UA159sp (CSP) and C-terminally truncated peptide TPC3 from mutant JH1005 defective in genetic competence, we designed and synthesized a series of truncated peptides and peptides with amino acid substitutions. […] The C-terminal structural motif consisting of a sequence of polar hydrophobic charged residues is crucial for activating the signal transduction pathway, while the core α-helical structure ext ...

quorum sensing (ComCDE signaling) in S. mutans lacZ reporter strains, sequence (Q8DS94 entry or part of it): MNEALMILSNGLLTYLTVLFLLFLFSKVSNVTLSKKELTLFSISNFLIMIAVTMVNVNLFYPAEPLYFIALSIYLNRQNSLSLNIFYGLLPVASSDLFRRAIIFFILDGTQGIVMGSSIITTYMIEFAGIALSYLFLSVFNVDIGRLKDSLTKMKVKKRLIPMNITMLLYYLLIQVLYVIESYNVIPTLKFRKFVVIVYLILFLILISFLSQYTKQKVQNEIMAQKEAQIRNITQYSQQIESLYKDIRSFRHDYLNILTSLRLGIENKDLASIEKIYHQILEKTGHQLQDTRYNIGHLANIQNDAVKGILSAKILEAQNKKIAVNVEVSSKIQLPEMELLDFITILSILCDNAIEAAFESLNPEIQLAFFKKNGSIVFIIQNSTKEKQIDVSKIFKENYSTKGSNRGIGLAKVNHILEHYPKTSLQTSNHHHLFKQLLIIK

Row | Compound | level of bacteriocins induced compared with wild-type GS5 [3] | solubility in water for NMR [4] | time for which the high level of β-gal activity is maintained [5] | time of highest level of β-gal activity after addition of peptide [5] | agonist function, AC50 compared with CSP [7] | other results
1 | CC(C)C[C@H](NC(=O)[C@H](C)NC(=O)[C@H](CCC(N)=O)NC(=O)[C@@H](NC(=O)[C@H](Cc1ccccc1)NC(=O)[C@H](CO)NC(=O)[C@H](CCCNC(=N)N)NC(=O)[C@H](CC(N)=O)NC(=O)[C@H](Cc1ccccc1)NC(=O)[C@H](CC(C)C)NC(=O)[C@H](CCCNC(=N)N)NC(=O)[C@H](Cc1ccccc1)NC(=O)[C@H](Cc1ccccc1)NC(=O)[C@@H](NC(=O)[C@H](CO)NC(=O)[C@H](CC(C)C)NC(=O)[C@H](CO)NC(=O)CNC(=O)[C@@H](N)CO)[C@@H](C)O)[C@@H](C)O)C(=O)NCC(=O)N[C@@H](CCCCN)C(=O)O [CSP (UA159sp), reference compound] (H-SGSLSTFFRLFNRSFTQALGK-OH) | induce the same level of bacteriocins as GS5 | not soluble enough for extensive NMR studies | at least 2 h | around 90 min |  | induction of β-gal activity upon addition of peptide [1]: induced to express predicted β-gal activity; time after addition at which expression of β-gal activity declined [2]: around 40 min
2 | CC(C)C[C@H](NC(=O)[C@H](C)NC(=O)[C@H](CCC(N)=O)NC(=O)[C@@H](NC(=O)[C@H](Cc1ccccc1)NC(=O)[C@H](CO)NC(=O)[C@H](Cc1ccccc1)NC(=O)[C@H](CC(N)=O)NC(=O)[C@H](Cc1ccccc1)NC(=O)[C@H](CC(C)C)NC(=O)[C@H](CCCNC(=N)N)NC(=O)[C@H](Cc1ccccc1)NC(=O)[C@H](Cc1ccccc1)NC(=O)[C@@H](NC(=O)[C@H](CO)NC(=O)[C@H](CC(C)C)NC(=O)[C@@H](N)CO)[C@@H](C)O)[C@@H](C)O)C(=O)NCC(=O)O [SPA-18] (H-SLSTFFRLFNFSFTQALG-OH; N-terminus and C-terminus assumed) | induce the same level of bacteriocins as GS5 |  | at least 2 h | around 90 min |  | replacement of CSP in inducing genetic competence [6]: could completely replace CSP (UA159sp); replacement of CSP in inducing bacteriocin production ([3]; Figure 5): could completely replace CSP (UA159sp); replacement of CSP in activating quorum sensing ([5]; β-gal activity of SMdC-PnlmAB, Figure 4): could completely replace CSP (UA159sp)
3 | CC(C)C[C@H](NC(=O)[C@H](C)NC(=O)[C@H](CCC(N)=O)NC(=O)[C@@H](NC(=O)[C@H](Cc1ccccc1)NC(=O)[C@H](CO)NC(=O)[C@H](CCCNC(=N)N)NC(=O)[C@H](CC(N)=O)NC(=O)[C@H](Cc1ccccc1)NC(=O)[C@H](CC(C)C)NC(=O)[C@H](CCCNC(=N)N)NC(=O)[C@H](Cc1ccccc1)NC(=O)[C@H](Cc1ccccc1)NC(=O)[C@@H](NC(=O)[C@H](CO)NC(=O)[C@H](CC(C)C)NC(=O)[C@H](CO)NC(=O)CNC(=O)[C@@H](N)CO)[C@@H](C)O)[C@@H](C)O)C(=O)NCC(=O)O [TPC1] (H-SGSLSTFFRLFNRSFTQALG-OH; N-terminus and C-terminus assumed) |  |  |  |  | functioned as agonists with AC50 values similar to CSP | 
4 | CC(C)C[C@H](NC(=O)[C@H](CCCNC(=N)N)NC(=O)[C@H](Cc1ccccc1)NC(=O)[C@H](Cc1ccccc1)NC(=O)[C@@H](NC(=O)[C@H](CO)NC(=O)[C@H](CC(C)C)NC(=O)[C@@H](NC(=O)CNC(=O)[C@@H](N)CO)[C@@H](C)O)[C@@H](C)O)C(=O)N[C@@H](Cc1ccccc1)C(=O)N[C@@H](CC(N)=O)C(=O)N[C@@H](CCCNC(=N)N)C(=O)N[C@@H](CO)C(=O)N[C@@H](Cc1ccccc1)C(=O)N[C@H](C(=O)N[C@@H](CCC(N)=O)C(=O)N[C@@H](C)C(=O)O)[C@@H](C)O [TPC3 (JH1005sp)] (H-SGTLSTFFRLFNRSFTQA-OH) |  | not soluble enough for extensive NMR studies |  |  |  | 
5 | CC(C)C[C@H](NC(=O)[C@H](C)NC(=O)[C@H](CCC(N)=O)NC(=O)[C@@H](NC(=O)[C@H](Cc1ccccc1)NC(=O)[C@H](CO)NC(=O)[C@H](CCCNC(=N)N)NC(=O)[C@H](CC(N)=O)NC(=O)[C@H](Cc1ccccc1)NC(=O)[C@H](CC(C)C)NC(=O)[C@H](CCCNC(=N)N)NC(=O)[C@H](Cc1ccccc1)NC(=O)[C@H](Cc1ccccc1)NC(=O)[C@@H](NC(=O)[C@H](CO)NC(=O)[C@H](CC(C)C)NC(=O)[C@@H](N)CO)[C@@H](C)O)[C@@H](C)O)C(=O)NCC(=O)N[C@@H](CCCCN)C(=O)O [TPN2] (H-SLSTFFRLFNRSFTQALGK-OH; N-terminus and C-terminus assumed) |  |  |  |  | functioned as agonists with AC50 values similar to CSP | 
